# Results published in article PMC9551036, “A selective and orally bioavailable VHL-recruiting PROTAC achieves SMARCA2 degradation in vivo” (Nature Communications, 2022).
# Values joined by “and” are separate entries in the source; they are usually repeats but may differ in a detail not shown here. Equal entries are not always repeated. Where two headings read alike, the source gives them in different places.
# Experiment: Pharmacokinetic analyses in mouse
# Type: in vivo
# Conditions: for AUC(0-t): read-out: AUC0-24h; for Vd: read-out: Vss
# Experimental: Compound concentrations in plasma aliquots were measured by quantitative HPLC-MS/MS using an internal standard. Calibration and quality control samples were prepared using blank plasma from untreated animals. Samples were precipitated with acetonitrile and injected into a HPLC system (Agilent 1200). Separation was performed by gradients of 5 mmol/L ammonium acetate pH 4.0 and acetonitrile with 0.1% formic acid on a 2.1 mm by 50 mm XBridge BEH C18 reversed-phase column with 2.5 µm particles (Waters). The HPLC was interfaced by ESI operated in positive ionisation mode to a triple quadrupole mass spectrometer (5000 or 6500+ Triple Quad System, SCIEX) operated in multiple reaction monitoring mode. Transitions were 532.4 to 432.8 m/z for BI01810284, 525.6 to 425.7 m/z for BI01802983 and 1021.6 to 624.2 m/z for BI01580883. Chromatograms were analyzed with Analyst (SCIEX) and pharmacokinetic parameters were calculated by non-compartmental analysis using BI-proprietary software.
# [1] = 5 mg/kg i.v., individual animals
# [2] = 30 mg/kg p.o., individual animals
# [3] = NMRI, mouse, plasma, iv, 5 mg/kg, NMRI mice, i.v., 5 mg/kg, PK study
# [4] = mouse, 5 mg/kg i.v., NCA, individual animals, 5 mg/kg
# [5] = mouse, 30 mg/kg p.o., NCA, individual animals, 30 mg/kg
smiles,measurement,setting,value
Cc1ncsc1-c1ccc(C(CCC(C)CCN2CCC(c3ccc4c(c3)n(C3CCCC3)c3nc(=O)c5c(Br)cccc5n43)CC2)NC(=O)C2CC(O)CN2C(=O)C(NC(=O)C2(F)CC2)C(C)(C)C)cc1 (stereo not shown) [ACBI2],AUC,[1],41.8 µM·h and 38 µM·h
same,AUCinf,[1],42.3 µM·h and 38.4 µM·h
same,Concentration,"5 mg/kg i.v., time 0.25 h, individual animals",6800 nM
same,Concentration,"5 mg/kg i.v., time 1 h, individual animals",5130 nM
same,Concentration,"5 mg/kg i.v., time 6 h, individual animals",1220 nM
same,Concentration,"5 mg/kg i.v., time 24 h, individual animals",94.9 nM
same,F,"30 mg/kg p.o. vs 5 mg/kg i.v., individual animals",23.8% and 20.9%
same,AUC,[2],53.9 µM·h and 47.2 µM·h
same,AUCinf,[2],55 µM·h and 48.3 µM·h
same,MRT,"NMRI, mouse, plasma, iv, 5 mg/kg, NMRI mice, PK study",3.8 h
same,AUC(0-t),[3],38 µM·h
same,AUC(0-inf),"NMRI, mouse, plasma, iv, 5 mg/kg, NMRI mice, i.v., 5 mg/kg, PK study, read-out: AUC0-inf",38 µM·h
same,clearance,"NMRI, mouse, plasma, iv, 5 mg/kg, NMRI mice, i.v., 5 mg/kg, PK study, read-out: Clearance",2 mL/min/kg
same,Vd,[3],0.47 L/kg
same,MRT,"NMRI, mouse, plasma, po, 30 mg/kg, NMRI mice, PK study",6.1 h
same,AUC(0-t),"NMRI, mouse, plasma, po, 30 mg/kg, NMRI mice, p.o., 30 mg/kg, PK study",50 µM·h
same,AUC(0-inf),"NMRI, mouse, plasma, po, 30 mg/kg, NMRI mice, p.o., 30 mg/kg, PK study, read-out: AUC0-inf",51 µM·h
same,bioavailability,"NMRI, mouse, plasma, po, 30 mg/kg, NMRI mice, p.o., 30 mg/kg, PK study, read-out: Bioavailability",22%
same,AUC(0-t),"NMRI, mouse, plasma, po, 80 mg/kg, NMRI mice, p.o., 80 mg/kg, Xenograft study",84 µM·h
same,Plasma concentration,"mouse, 5 mg/kg i.v., 0.25 h, individual animals, 5 mg/kg",7530 nM and 7360 nM
same,Plasma concentration,"mouse, 5 mg/kg i.v., 1 h, individual animals, 5 mg/kg",6000 nM and 5660 nM
same,Plasma concentration,"mouse, 5 mg/kg i.v., 6 h, individual animals, 5 mg/kg",1620 nM and 1380 nM
same,Plasma concentration,"mouse, 5 mg/kg i.v., 24 h, individual animals, 5 mg/kg",85.5 nM and 74.3 nM
same,AUC,[4],41.8 µM·h and 38 µM·h
same,AUCinf,[4],42.3 µM·h and 38.4 µM·h
same,CL,[4],1.85 mL/min/kg and 2.04 mL/min/kg
same,Vss,[4],0.426 L/kg and 0.449 L/kg
same,Plasma concentration,"mouse, 30 mg/kg p.o., 0.333 h, individual animals, 30 mg/kg",968 nM and 1530 nM
same,Plasma concentration,"mouse, 30 mg/kg p.o., 1 h, individual animals, 30 mg/kg",4180 nM and 4160 nM
same,Plasma concentration,"mouse, 30 mg/kg p.o., 2 h, individual animals, 30 mg/kg",4460 nM and 4880 nM
same,Plasma concentration,"mouse, 30 mg/kg p.o., 6 h, individual animals, 30 mg/kg",3380 nM and 2650 nM
same,Plasma concentration,"mouse, 30 mg/kg p.o., 24 h, individual animals, 30 mg/kg",173 nM and 175 nM
same,AUC,[5],53.9 µM·h and 47.2 µM·h
same,AUCinf,[5],55 µM·h and 48.3 µM·h
same,F,[5],23.8% and 20.9%
same,concentration at 0.25 h,"mouse, plasma, intravenous, 5 mg/kg, 5 mg/kg i.v., time 0.25 h, individual animals, read-out: Concentration",7530 nM
same,concentration at 1 h,"mouse, plasma, intravenous, 5 mg/kg, 5 mg/kg i.v., time 1 h, individual animals, read-out: Concentration",6000 nM
same,concentration at 6 h,"mouse, plasma, intravenous, 5 mg/kg, 5 mg/kg i.v., time 6 h, individual animals, read-out: Concentration",1620 nM
same,concentration at 24 h,"mouse, plasma, intravenous, 5 mg/kg, 5 mg/kg i.v., time 24 h, individual animals, read-out: Concentration",85.5 nM
same,AUC,"mouse, plasma, iv, 5 mg/kg, 5 mg/kg i.v., individual animals, read-out: AUC",34.2 µM·h
same,AUC(0-inf),"mouse, plasma, iv, 5 mg/kg, 5 mg/kg i.v., individual animals, read-out: AUCinf",34.7 µM·h
same,concentration at 0.25 h,"mouse, plasma, iv, 5 mg/kg, mouse, 5 mg/kg i.v., 0.25 h, individual animals, read-out: Plasma concentration",6800 nM
same,concentration at 1 h,"mouse, plasma, iv, 5 mg/kg, mouse, 5 mg/kg i.v., 1 h, individual animals, read-out: Plasma concentration",5130 nM
same,concentration at 6 h,"mouse, plasma, iv, 5 mg/kg, mouse, 5 mg/kg i.v., 6 h, individual animals, read-out: Plasma concentration",1220 nM
same,concentration at 24 h,"mouse, plasma, iv, 5 mg/kg, mouse, 5 mg/kg i.v., 24 h, individual animals, read-out: Plasma concentration",94.9 nM
same,AUC,"mouse, plasma, iv, 5 mg/kg, mouse, 5 mg/kg i.v., NCA, individual animals, read-out: AUC",34.2 µM·h
same,AUC(0-inf),"mouse, plasma, iv, 5 mg/kg, mouse, 5 mg/kg i.v., NCA, individual animals, read-out: AUCinf",34.7 µM·h
same,clearance,"mouse, plasma, iv, 5 mg/kg, mouse, 5 mg/kg i.v., NCA, individual animals, read-out: CL",2.25 mL/min/kg
same,Vd,"mouse, plasma, iv, 5 mg/kg, mouse, 5 mg/kg i.v., NCA, individual animals",0.536 L/kg
same,clearance,"mouse, plasma, iv, 5 mg/kg, mouse, 5 mg/kg i.v., read-out: clearance",2.1 mL/min/kg
same,concentration at 0.333 h,"mouse, plasma, oral, 30 mg/kg, 30 mg/kg p.o., time 0.333 h, individual animals, read-out: Concentration",898 nM
same,concentration at 1 h,"mouse, plasma, oral, 30 mg/kg, 30 mg/kg p.o., time 1 h, individual animals, read-out: Concentration",4310 nM
same,concentration at 2 h,"mouse, plasma, oral, 30 mg/kg, 30 mg/kg p.o., time 2 h, individual animals, read-out: Concentration",4290 nM
same,concentration at 6 h,"mouse, plasma, oral, 30 mg/kg, 30 mg/kg p.o., time 6 h, individual animals, read-out: Concentration",2750 nM
same,concentration at 24 h,"mouse, plasma, oral, 30 mg/kg, 30 mg/kg p.o., time 24 h, individual animals, read-out: Concentration",265 nM
same,bioavailability,"mouse, plasma, oral, 30 mg/kg, mouse, 30 mg/kg p.o. vs 5 mg/kg i.v., read-out: F% p.o. (oral bioavailability)",22%
same,bioavailability,"mouse, plasma, po, 30 mg/kg, 30 mg/kg p.o. vs 5 mg/kg i.v., individual animals, read-out: F",21.5%
same,AUC,"mouse, plasma, po, 30 mg/kg, 30 mg/kg p.o., individual animals, read-out: AUC",47.5 µM·h
same,AUC(0-inf),"mouse, plasma, po, 30 mg/kg, 30 mg/kg p.o., individual animals, read-out: AUCinf",49.5 µM·h
same,concentration at 0.333 h,"mouse, plasma, po, 30 mg/kg, mouse, 30 mg/kg p.o., 0.333 h, individual animals, read-out: Plasma concentration",898 nM
same,concentration at 1 h,"mouse, plasma, po, 30 mg/kg, mouse, 30 mg/kg p.o., 1 h, individual animals, read-out: Plasma concentration",4310 nM
same,concentration at 2 h,"mouse, plasma, po, 30 mg/kg, mouse, 30 mg/kg p.o., 2 h, individual animals, read-out: Plasma concentration",4290 nM
same,concentration at 6 h,"mouse, plasma, po, 30 mg/kg, mouse, 30 mg/kg p.o., 6 h, individual animals, read-out: Plasma concentration",2750 nM
same,concentration at 24 h,"mouse, plasma, po, 30 mg/kg, mouse, 30 mg/kg p.o., 24 h, individual animals, read-out: Plasma concentration",265 nM
same,AUC,"mouse, plasma, po, 30 mg/kg, mouse, 30 mg/kg p.o., NCA, individual animals, read-out: AUC",47.5 µM·h
same,AUC(0-inf),"mouse, plasma, po, 30 mg/kg, mouse, 30 mg/kg p.o., NCA, individual animals, read-out: AUCinf",49.5 µM·h
same,bioavailability,"mouse, plasma, po, 30 mg/kg, mouse, 30 mg/kg p.o., NCA, individual animals, read-out: F",21.5%
